The subject of one experiment is A. fumigatus AF91. The experiment in a line: EUCAST broth microdilution growth inhibition (OD 530 nm, 384-well). In kind it is cell-based. Particulars: Aspergillus fumigatus, strain AF91 (ITC-resistant), 48 h. As for the experimental part: (§1) The antifungal activities of the test compounds against A. fumigatus strains (itraconazole [ITC]-susceptible strains NCPF2010, AF294, and AF293; ITC-resistant strains AF72 and AF91) were calculated from growth curves generated by spectrophotometric analysis and compared to the activities against positive and negative controls.
In general terms: In broth dilution the organism is exposed to a series of concentrations in liquid medium.

A further experiment relates to A. fumigatus AF293. The description is as above. Format: cell-based. To be noted: Aspergillus fumigatus, strain AF293 (ITC-susceptible), 48 h. As to the method:
as §1

In the next experiment the test system is A. fumigatus NCPF2010. The experiment is described as above. Particulars: Aspergillus fumigatus, strain NCPF2010 (ITC-susceptible), 48 h, range tested 0.002 to 1 μg/ml. In kind it is cell-based. As to the method:
as §1

The test system of a further experiment is A. fumigatus AF72. The description is as above. Format: cell-based. To be noted: Aspergillus fumigatus, strain AF72 (ITC-resistant), 48 h. As to the method: as §1
The next experiment deals with A. fumigatus AF294. Described as above. Particulars: Aspergillus fumigatus, strain AF294 (ITC-susceptible), 48 h. Format: cell-based. As to the method: as §1
Experiment [1] deals with A. fumigatus (ATCC 13073 [strain NIH 5233]). The experiment in a line: MIC against the strain used in vivo. To be noted: Aspergillus fumigatus, ATCC13073; strain ATCC 13073; read-out: MIC. Format: cell-based.
In the next experiment the test system is A. fumigatus isolates. Details: method as in PMID 12202554. Particulars: MFC = lowest dilution yielding less than 3 colonies; cited from earlier work.

The structures appear in SMILES notation. Values after ≈ are worked out from the molar mass of the structure shown. Some results are limits rather than exact numbers.

Consider `C[C@@H]1[C@H](O)[C@@H](C)/C=C/C=C/C=C/C=C/C=C/C=C/C=C/[C@H](O[C@@H]2O[C@H](C)[C@@H](O)[C@H](N)[C@@H]2O)C[C@@H]2O[C@](O)(C[C@@H](O)C[C@@H](O)[C@H](O)CC[C@@H](O)C[C@@H](O)CC(=O)O[C@H]1C)C[C@H](O)[C@H]2C(=O)O` [Amphotericin B, amphotericin B], for which the IC50 (usually the concentration at which inhibition is half-maximal) in the experiment on A. fumigatus AF91 is 0.28 µg/mL (≈ 0.303 µM); in the experiment on A. fumigatus AF293 it was 0.24 µg/mL (≈ 0.26 µM); in the experiment with A. fumigatus NCPF2010, 0.2 µg/mL (≈ 0.216 µM); with A. fumigatus AF72, 0.12 µg/mL (≈ 0.13 µM); in the experiment on A. fumigatus AF294, 0.21 µg/mL (≈ 0.227 µM). The 90% effect concentration (IC90) (in general, the concentration needed for an effect of 90%) turned out to be 0.75 µg/mL (≈ 0.812 µM) in the experiment on A. fumigatus AF91; 0.85 µg/mL (≈ 0.92 µM) in the experiment with A. fumigatus AF293; 0.62 µg/mL (≈ 0.671 µM) in the experiment with A. fumigatus NCPF2010; 0.42 µg/mL (≈ 0.455 µM) with A. fumigatus AF72; 0.79 µg/mL (≈ 0.855 µM) with A. fumigatus AF294.
For `CC[C@H](C)C[C@H](C)CCCCCCCCC(=O)N[C@H]1C[C@@H](O)[C@@H](NCCN)NC(=O)[C@@H]2[C@@H](O)CCN2C(=O)[C@H]([C@H](O)CCN)NC(=O)[C@H]([C@H](O)[C@@H](O)c2ccc(O)cc2)NC(=O)[C@@H]2C[C@@H](O)CN2C(=O)[C@H]([C@@H](C)O)NC1=O` [Caspofungin, caspofungin], the IC50 in the experiment with A. fumigatus AF91 is 0.11 µg/mL (≈ 0.101 µM); in the experiment on A. fumigatus AF293 it was > 1 µg/mL; in the experiment on A. fumigatus NCPF2010, 0.065 µg/mL (≈ 0.0595 µM); with A. fumigatus AF72, 0.065 µg/mL (≈ 0.0595 µM); in the experiment on A. fumigatus AF294 it was > 1 µg/mL. For the same compound, the 90% effect concentration (IC90) in the experiment with A. fumigatus AF91, in the experiment with A. fumigatus AF293, in the experiment with A. fumigatus NCPF2010, in the experiment with A. fumigatus AF72 and in the experiment on A. fumigatus AF294 was > 1 µg/mL each time.
`CCC(C)n1ncn(-c2ccc(N3CCN(c4ccc(OCC5COC(Cn6cncn6)(c6ccc(Cl)cc6Cl)O5)cc4)CC3)cc2)c1=O` (centres unmarked) [Itraconazole, itraconazole]: the MIC (in general, the smallest concentration in the dilution series that meets the test's criterion for growth inhibition) in experiment [1] came out at 0.5 µg/mL (≈ 0.709 µM). The “range of MFCs for inhibition of 90% of isolates tested (MFC90)” value with A. fumigatus isolates is 0.2 to 4 µg/mL. Also, the half-maximal inhibitory concentration (IC50) with A. fumigatus AF91 turned out to be 0.22 µg/mL (≈ 0.312 µM); in the experiment with A. fumigatus AF293 it was 0.032 µg/mL (≈ 0.0453 µM); with A. fumigatus NCPF2010, 0.037 µg/mL (≈ 0.0524 µM); in the experiment on A. fumigatus AF72 it was 0.31 µg/mL (≈ 0.439 µM); in the experiment on A. fumigatus AF294, 0.041 µg/mL (≈ 0.0581 µM). For the same compound, the 90% effect concentration (IC90) in the experiment with A. fumigatus AF91 is > 1 µg/mL; in the experiment with A. fumigatus AF293, 0.23 µg/mL (≈ 0.326 µM); in the experiment on A. fumigatus NCPF2010, 0.054 µg/mL (≈ 0.0765 µM); in the experiment on A. fumigatus AF72, > 1 µg/mL; with A. fumigatus AF294, 0.052 µg/mL (≈ 0.0737 µM).
